Test results: patent EP0700301B1, “PEPTIDES AND COMPOUNDS THAT BIND TO ELAM-1” (AFFYMAX TECHNOLOGIES N.V., priority 1993, dated 1994)
Ends that are not written are not given here.

Biological target: T1, immobilized ELAM-1 (Homo sapiens, UniProt P16581)
T1 construct: truncated form comprising the complete extracellular domain (amino acids 1 through 554); made in house; released with phospholipase C
T1 sequence (P16581 22-554): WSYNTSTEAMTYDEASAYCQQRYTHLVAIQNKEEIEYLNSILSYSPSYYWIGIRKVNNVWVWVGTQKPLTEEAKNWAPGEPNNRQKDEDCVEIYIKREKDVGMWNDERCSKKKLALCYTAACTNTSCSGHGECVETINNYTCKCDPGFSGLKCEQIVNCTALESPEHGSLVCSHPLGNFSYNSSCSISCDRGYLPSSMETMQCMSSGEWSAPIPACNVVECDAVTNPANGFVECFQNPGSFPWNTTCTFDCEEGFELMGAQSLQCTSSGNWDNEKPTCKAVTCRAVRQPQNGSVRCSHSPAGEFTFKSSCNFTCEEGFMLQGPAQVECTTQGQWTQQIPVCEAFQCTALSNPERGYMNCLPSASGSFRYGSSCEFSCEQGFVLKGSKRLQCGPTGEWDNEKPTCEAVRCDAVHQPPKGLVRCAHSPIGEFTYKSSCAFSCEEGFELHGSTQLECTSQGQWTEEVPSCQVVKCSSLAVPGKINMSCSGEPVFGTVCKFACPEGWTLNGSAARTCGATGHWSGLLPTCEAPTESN
Experiment: cell-based
Assay type: cell-based
Experimental: By comparing test wells with control wells (no receptor), one can determine whether a peptide binds to ELAM-1 specifically. Peptides found to bind specifically to ELAM-1 were then synthesized as the free peptide (no phage) and tested in an HL60 cell adhesion competition assay. The competition assay was carried out similarly to the ELISA, except that labeled HL60 cells were added in addition to the peptide (the control wells were typically of at least two types: (1) no immobilized ELAM-1; and (2) no peptide; see the Examples). Peptides that block the binding of labeled HL60 cells ELAM-1 are preferred compounds of the invention. […] The assay requires HL60 cells labeled with tritiated thymidine. To label the cells, about 10 million HL60 cells are collected by centrifugation (2500 RPM for 3 minutes) and resuspended in 15 mL of DMEM/F12 plus 5% fetal calf serum containing 2 μCi/mL of tritiated thymidine (Amersham). The cells are then placed in a T75 flask and incubated at 37°C for 24 hours. The cells are then collected by centrifugation, washed twice with RPMI/HEPES/0.1% FCS, and resuspended in the same solution at a concentration of about one to two million cells per mL. […] After this incubation, aliquots were removed from each well and placed in scintillation vials; scintillation fluid was added to each vial; and the radioactivity in each aliquot was quantitated by LS counting. […]

blocking of HL60 cell binding that occurred in the absence of added compound (200000.0): over 80% | inhibition at 50 µM (HL-60, at a concentration of 50 µM, tested from 0.5 to 100 µM, Figure 2, read-out: inhibition of binding of HL60 cells): ~50%
Sequence: HITWDQLWNVMN
